Reference: patent EP2676962A1, “Derivatives of 1-aminoalkylphosphonate diaryl esters, method of 1-aminoalkylphosphonate diaryl ester derivatives preparation and their application” (priority 2012, dated 2013)
Read-outs that look alike come from different tables or passages of the source.

Columns and labels:
Type in all cases: biochemical
[1] = target: T1, human neutrophil elastase (HNE) (Homo sapiens, UniProt P08246); experiment: Inhibitory activity toward human neutrophil elastase, fluorogenic substrate, microplate reader
T1 sequence (P08246 30-267): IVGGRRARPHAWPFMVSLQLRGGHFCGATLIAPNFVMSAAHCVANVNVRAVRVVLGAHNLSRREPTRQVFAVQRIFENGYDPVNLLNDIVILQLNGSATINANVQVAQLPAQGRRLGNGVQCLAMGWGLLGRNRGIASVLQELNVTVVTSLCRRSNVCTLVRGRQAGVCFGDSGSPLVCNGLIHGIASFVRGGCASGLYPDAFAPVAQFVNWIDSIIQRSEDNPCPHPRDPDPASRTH
Experimental: (§1) The biological activity of peptidyl derivatives of phosphonic analogs of valine, alanine, phenylalanine, 4-guanidinephenylglycine, leucine, and 1-aminobutyric acid, containing the N-terminal biotin residue were tested for their ability to inhibit proteolytic activity of selected serine proteases, and the control cysteine proteases. All tests were performed using a microplate reader. As enzyme substrates fluorescent peptides were used. The method to measure the activity of the compounds obtained are described below for each of the enzymes tested: human neutrophil elastase (HNE), porcine pancreatic elastase (PPE), subtilisin (Sub), cathepsin G (CatG), proteinase 3 (PR3), chymotrypsin (ChTry) trypsin (Try), papain (Pap) and cathepsin L (CatL). Measurement of the inhibitory activity was performed at different inhibitor concentrations ranging from 12.5 nM to 2000nm.
Measurement of inhibitory activity of compounds toward human neutrophil elastase (HNE).
(§2) The inhibitory activity assay is performed at 37°C in 0,01M HEPES, 0,5M NaCl, 0,03% Triton X-100 buffer, pH 7,5, within 10 min after initial pre-incubation of the enzyme with inhibitor tested at 37°C for 10 min. The enzyme concentration is 0,0025U/ml. Substrate used Me-Suc-Ala-Ala-Pro-Val-AFC at 25µM. Measurement is taken at an excitation wavelength of 400nm and 505nm emission.
(§3) The IC50 value is the concentration of inhibitor required to inhibit half of the enzyme activity after 10 minutes incubation.

[2] = target: porcine pancreatic elastase (PPE) (Sus scrofa, UniProt P00772); experiment: Inhibitory activity toward porcine pancreatic elastase, fluorogenic substrate, microplate reader
porcine pancreatic elastase (PPE), sequence (P00772 27-266): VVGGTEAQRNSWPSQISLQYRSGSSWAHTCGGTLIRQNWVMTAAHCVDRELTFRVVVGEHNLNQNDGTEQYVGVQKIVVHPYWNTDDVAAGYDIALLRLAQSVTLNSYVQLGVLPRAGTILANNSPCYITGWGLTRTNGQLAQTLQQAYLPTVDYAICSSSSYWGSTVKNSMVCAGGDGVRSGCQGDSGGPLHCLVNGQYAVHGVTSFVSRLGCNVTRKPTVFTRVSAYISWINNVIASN
Experimental: as §1
Measurement of inhibitory activity of compounds toward porcine pancreatic elastase (PPE).
(§4) The inhibitory activity assay is performed at 37°C in 0,01M Tris-HCl, 0,05% Triton X-100 buffer, pH 8,5, within 10 min after initial pre-incubation of the enzyme with inhibitor tested at 37°C for 10 min. The enzyme concentration is 60nM. Substrate used Me-Suc-Ala-Ala-Pro-Val-AMC at 100µM. Measurement is taken at an excitation wavelength of 350nm and 460nm emission.
as §3

[3] = target: chymotrypsin (ChTry) (Bos taurus, UniProt P00766); experiment: Inhibitory activity toward chymotrypsin, fluorogenic substrate, microplate reader; conditions: 10 min pre-incubation at 37°C, pH 7,5, Suc-Ala-Ala-Pro-Phe-AMC 5µM; NI = brak inhibicji (no inhibition)
Experimental: as §1
Measurement of inhibitory activity of compounds toward […] (ChyTry).
(§5) The inhibitory activity assay is performed at 37°C in 0,1M HEPES, 0,5M NaCl buffer, pH 7,5, within 10 min after initial pre-incubation of the enzyme with inhibitor tested at 37°C for 10 min. The enzyme concentration is 3nM. Substrate used Suc-Ala-Ala-Pro-Phe-AMC at 5µM. Measurement is taken at an excitation wavelength of 350nm and 460nm emission.
as §3

[4] = target: T2, proteinase 3 (PR3) (Homo sapiens, UniProt P24158); experiment: Inhibitory activity toward proteinase 3, fluorogenic substrate, microplate reader
T2 sequence (P24158 28-248): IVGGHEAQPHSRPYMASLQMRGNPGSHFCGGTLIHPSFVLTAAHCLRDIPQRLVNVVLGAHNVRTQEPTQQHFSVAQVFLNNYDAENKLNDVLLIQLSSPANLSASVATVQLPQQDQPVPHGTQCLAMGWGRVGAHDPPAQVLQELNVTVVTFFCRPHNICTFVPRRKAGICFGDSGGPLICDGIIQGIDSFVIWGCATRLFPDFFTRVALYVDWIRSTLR
Experimental: as §1
Measurement of inhibitory activity of compounds toward proteinase 3(PR3).
as §5, with “Tric-HCl,” for “HEPES,”, “17nM.” for “3nM.”, “Abz-Tyr-Tyr-Abu-Anb-NH2” for “Suc-Ala-Ala-Pro-Phe-AMC”, “30µM.” for “5µM.”, “325nm” for “350nm”, “400nm” for “460nm”
as §3

[5] = target: subtilisin (Sub) (Bacillus licheniformis, UniProt P00780); experiment: Inhibitory activity toward subtilisin, fluorogenic substrate, microplate reader
subtilisin (Sub), sequence (P00780 106-379): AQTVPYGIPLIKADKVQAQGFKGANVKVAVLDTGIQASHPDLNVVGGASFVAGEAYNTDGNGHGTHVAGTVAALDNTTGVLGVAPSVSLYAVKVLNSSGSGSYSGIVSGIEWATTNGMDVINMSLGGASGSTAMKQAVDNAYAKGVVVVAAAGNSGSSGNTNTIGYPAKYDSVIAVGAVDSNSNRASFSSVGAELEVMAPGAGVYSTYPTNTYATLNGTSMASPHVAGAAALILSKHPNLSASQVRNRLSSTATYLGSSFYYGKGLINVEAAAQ
Experimental: as §1
Measurement of inhibitory activity of compounds toward subtilisin (Sub).
as §4, with “0,05M” for “0,01M”, “1M NaCl, 0,01%” for “0,05%”, “7,5,” for “8,5,”, “5nM.” for “60nM.”, “Me-Suc-Ala-Ala-Pro-Phe-AMC” for “Me-Suc-Ala-Ala-Pro-Val-AMC”, “5µM.” for “100µM.”
as §3

[6] = target: T3, trypsin (Try) (Bos taurus, UniProt P00760); experiment: Inhibitory activity toward trypsin, fluorogenic substrate, microplate reader; conditions: 10 min pre-incubation at 37°C, pH 7,5, Cbz-Arg-AFC 100µM; NI = brak inhibicji (no inhibition)
T3 sequence (P00760 24-246): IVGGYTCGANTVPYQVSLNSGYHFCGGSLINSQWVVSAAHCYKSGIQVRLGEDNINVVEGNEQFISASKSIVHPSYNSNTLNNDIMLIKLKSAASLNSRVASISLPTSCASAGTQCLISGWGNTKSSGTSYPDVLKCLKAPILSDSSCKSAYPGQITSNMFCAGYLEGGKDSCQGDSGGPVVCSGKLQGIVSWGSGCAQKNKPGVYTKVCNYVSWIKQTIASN
Experimental: as §1
Measurement of inhibitory activity of compounds toward trypsin (Try).
as §2, with “0,1M” for “0,01M”, “25nM.” for “0,0025U/ml.”, “Cbz-Arg-AFC” for “Me-Suc-Ala-Ala-Pro-Val-AFC”, “100µM.” for “25µM.”
as §3

[7] = target: T4, cathepsin G (CatG) (Homo sapiens, UniProt P08311); experiment: Inhibitory activity toward cathepsin G, fluorogenic substrate, microplate reader; conditions: for Cat G Kobs/[I]: 10 min pre-incubation at 37°C, pH 7,5, MCA-Phe-Val-Thr-Gnf-Ser-Trp-Anb-NH2 2.5µM, NI = brak inhibicji (no inhibition)
T4 sequence (P08311 21-244): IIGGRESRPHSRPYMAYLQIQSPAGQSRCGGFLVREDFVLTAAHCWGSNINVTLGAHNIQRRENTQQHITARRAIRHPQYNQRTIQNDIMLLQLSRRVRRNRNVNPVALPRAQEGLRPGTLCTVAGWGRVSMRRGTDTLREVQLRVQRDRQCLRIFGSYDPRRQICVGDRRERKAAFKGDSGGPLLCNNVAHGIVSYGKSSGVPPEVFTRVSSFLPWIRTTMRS
Experimental: as §1
Measurement of inhibitory activity of compounds toward cathepsin G (CatG).
as §5, with “Tric-HCl,” for “HEPES,”, “100nM.” for “3nM.”, “MCA-Phe-Val-Thr-Gnf-Ser-Trp-Anb-NH2” for “Suc-Ala-Ala-Pro-Phe-AMC”, “2.5µM.” for “5µM.”, “325nm” for “350nm”, “400nm” for “460nm”
as §3

[8] = 10 min pre-incubation at 37°C, pH 7,5, Me-Suc-Ala-Ala-Pro-Val-AFC 25µM, NI = brak inhibicji (no inhibition)
[9] = read-out: PPE IC50, 10 min pre-incubation at 37°C, pH 8,5, Me-Suc-Ala-Ala-Pro-Val-AMC 100µM, NI = brak inhibicji (no inhibition)
[10] = read-out: PR3 IC50, 10 min pre-incubation at 37°C, pH 7,5, Abz-Tyr-Tyr-Abu-Anb-NH2 30µM, NI = brak inhibicji (no inhibition)
[11] = 10 min pre-incubation at 37°C, pH 7,5, Me-Suc-Ala-Ala-Pro-Phe-AMC 5µM, NI = brak inhibicji (no inhibition)
[12] = 10 min pre-incubation at 37°C, pH 8,5, Me-Suc-Ala-Ala-Pro-Val-AMC 100µM, NI = brak inhibicji (no inhibition)
[13] = 10 min pre-incubation at 37°C, pH 7,5, Abz-Tyr-Tyr-Abu-Anb-NH2 30µM, NI = brak inhibicji (no inhibition)

| SMILES | IC50 [1] [nM] | HNE Kobs/[I] [1, 8] | IC50 [2, 9] [nM] | ChyTr Kobs/[I] [3] | IC50 [4, 10] [nM] | IC50 [5] [nM] | Try Kobs/[I] [6] | IC50 [7] [nM] | Cat G Kobs/[I] [7] | Sub Kobs/[I] [5, 11] | IC50 [2] [nM] | PPE Kobs/[I] [2, 12] | IC50 [4] [nM] | PR3 Kobs/[I] [4, 13] | IC50 ([1]; read-out: HNE IC50, 10 min pre-incubation at 37°C, pH 7,5, Me-Suc-Ala-Ala-Pro-Val-AFC 25µM, NI = brak inhibicji (no inhibition)) [nM] | IC50 ([5]; read-out: Sub IC50, 10 min pre-incubation at 37°C, pH 7,5, Me-Suc-Ala-Ala-Pro-Phe-AMC 5µM, NI = brak inhibicji (no inhibition)) [nM] |
| --- | --- | --- | --- | --- | --- | --- | --- | --- | --- | --- | --- | --- | --- | --- | --- | --- |
| CSc1ccc(OP(=O)(Oc2ccc(SC)cc2)C(Cc2ccccc2)NC(=O)C2CCCN2C(=O)C(NC(=O)CCCCC2SCC3NC(=O)NC32)C(C)C)cc1 (stereo not shown) [Compound 6, bis(4-(methylthio)phenyl) (1-(1-(3-methyl-2-(5-(2-oxohexahydro-1H-thieno[3,4-d]imidazol-4-yl)pentanamido)butanoyl)pyrrolidine-2-carboxamido)-2-phenylethyl)phosphonate] | 1.55 ± 0.05 | 2.5*10^5 M^-1S^-1 | > 5000 | 1.0*10^5 M^-1S^-1 | > 5000 | 5.6 ± 0.8 | 3.7*10^2 M^-1S^-1 | 218 ± 45 | 5.3*10^3 M^-1S^-1 |  |  |  |  |  |  |  |
| CSc1ccc(OP(=O)(Oc2ccc(SC)cc2)C(CC(C)C)NC(=O)C2CCCN2C(=O)CCCCC2SCC3NC(=O)NC32)cc1 (stereo not shown) [Compound 8, bis(4-(methylthio)phenyl) (3-methyl-1-(1-(5-(2-oxohexahydro-1H-thieno[3,4-d]imidazol-4-yl)pentanoyl)pyrrolidine-2-carboxamido)butyl)phosphonate] | 3800 ± 250 | 3.0*10^2 M^-1S^-1 | > 5000 | 2.9*10^3 M^-1S^-1 | > 5000 | 11.7 ± 0.61 | 1*10^3 M^-1S^-1 | 1100 ± 139 | 1.0*10^3 M^-1S^-1 | 9.9*10^4 M^-1S^-1 |  |  |  |  |  |  |
| COC(=O)c1ccc(OP(=O)(Oc2ccc(C(=O)OC)cc2)C(CC(C)C)NC(=O)C2CCCN2C(=O)C(NC(=O)CCCCC2SCC3NC(=O)NC32)C(C)C)cc1 (stereo not shown) [Compound 9, dimethyl 4,4'-(((3-methyl-1-(1-(3-methyl-2-(5-(2-oxohexahydro-1H-thieno[3,4-d]imidazol-4-yl)pentanamido)butanoyl)pyrrolidine-2-carboxamido)butyl)phosphoryl)bis(oxy))dibenzoate] | 5.61 ± 0.02 |  |  | 5.2*10^4 M^-1S^-1 |  | 21.2 ± 1.2 | 4.4*10^4 M^-1S^-1 | 720 ± 60 | 1.6*10^3 M^-1S^-1 | 5.4*10^4 M^-1S^-1 | > 5000 | <200 M^-1S^-1 | 59.5 ± 8 | 3.9*10^4 M^-1S^-1 |  |  |
| CSc1ccc(OP(=O)(Oc2ccc(SC)cc2)C(NC(=O)C(NC(=O)C(NC(=O)C(Cc2ccccc2)NC(=O)CCC(=O)NCCCCCNC(=O)CCCCC2SCC3NC(=O)NC32)C(C)C)C(C)O)c2ccc(NC(=N)N)cc2)cc1 (stereo not shown) [Compound 11, bis(4-(methylthio)phenyl) 10-benzyl-1-(4-guanidinophenyl)-4-(1-hydroxyethyl)-7-isopropyl-3,6,9,12,15,23-hexaoxo-27-(2-oxohexahydro-1H-thieno[3,4-d]imidazol-4-yl)-2,5,8,11,16,22-hexaazaheptacosylphosphonate] |  |  | > 5000 |  |  | 480 ± 15.5 | 2.7*10^3 M^-1S^-1 | 4740 ± 556 | 2.4*10^2 M^-1S^-1 | 2.4*10^3 M^-1S^-1 |  |  | 603 ± 49 | 3.8*10^3 M^-1S^-1 | > 5000 |  |
| CSc1ccc(OP(=O)(Oc2ccc(SC)cc2)C(CC(C)C)NC(=O)C2CCCN2C(=O)C(NC(=O)CCCCC2SCC3NC(=O)NC32)C(C)C)cc1 (stereo not shown) [Compound 12, bis(4-(methylthio)phenyl) (3-methyl-1-(1-(3-methyl-2-(5-(2-oxohexahydro-1H-thieno[3,4-d]imidazol-4-yl)pentanamido)butanoyl)pyrrolidine-2-carboxamido)butyl)phosphonate] | 66.5 ± 6.5 | 1.7*10^4 M^-1S^-1 |  | 4.5*10^4 M^-1S^-1 | > 5000 |  | 1.9*10^3 M^-1S^-1 | 436 ± 22 | 2.6*10^3 M^-1S^-1 |  | 289 ± 10 | 4*10^3 M^-1S^-1 |  |  |  | > 5000 |
